Experiments:
[1] = Comparison of cooling attributes of (−)-menthol and racemic menthol in a toothpaste (CREST Cavity formulation); format: in vivo; conditions: for Potency compared to L-Menthol / Time Point at Maximum Cooling / Maximum Cooling (0-60 scale) / Maximum Longevity: CREST Cavity formulation; for Maximum Cooling (0-60 scale): 60 = greatest amount of cooling, 0 = least; for Maximum Longevity: longevity of cooling; for EC 50: concentration of coolant giving 50% of its maximal cooling
Text: The following data helps support the use of racemic menthol to reduce costs of mint flavor compositions herein described. From internal unpublished research, Table B compares replacing (−)-menthol with a racemic menthol in a 1:1 in a toothpaste formulation. Such a direct replacement is not preferred given the reduced cooling profile and olfactory differences; however, a portion of L-menthol is preferably replaced by racemic-menthol to gain cost efficiency while minimizing impact to the overall mint flavor profiles.
Table B is a comparison of attributes between (-)-menthol and racemic menthol in a toothpaste context (using CREST Cavity formulation).
This value represents the concentration of a coolant where 50% of its maximal cooling is observed.

[2] = Expert sensory testing of racemic menthol versus (−)-menthol in a toothpaste formulation (CREST Cavity) with a standard spearmint flavor; format: in vivo
Method: In separate, unpublished internal experiments, perceptual experiences of racemic menthol are quantified via expert sensory testing. The use of a standard spearmint flavor (minimizing extra menthol contribution) compared racemic menthol to (−)-menthol in a toothpaste formulation (CREST Cavity). There are several sensory observations taken from these experiments. […] These aromatic notes appear during brushing and disappear after 5-10 minutes post expectoration and are more pronounced as concentrations increase.

SMILES	Potency compared to L-Menthol [1]	Time Point at Maximum Cooling [1] [min]	Maximum Cooling (0-60 scale) [1]	Maximum Longevity [1]	EC 50 [1]	Less potent than (−)-menthol for cooling [2]
CC1CCC(C(C)C)C(O)C1 (single isomer, unassigned; (-)) [(−)-Menthol, (−)-menthol]	1x	~5	40	Up to 25 minutes	1,750 to 2,250 parts per million	
CC1CCC(C(C)C)C(O)C1 (racemic) [Racemic Menthol, racemic menthol]	~0.65-0.7x	~1	35	Up to 20 minutes	1,250 to 1,500 parts per million	25-30%

From patent publication US20210337847A1, “Mint Flavor Compositions” (The Procter & Gamble Company, priority 2020, published 2021)
